The text below walks through data of ChEMBL document CHEMBL2412968, “Tetrazole-based deoxyamodiaquines: synthesis, ADME/PK profiling and pharmacological evaluation as potential antimalarial agents” (Bioorg Med Chem, 2013).

One data set has as its system CHO. Kind of data set: Cytotoxicity against CHO cells by MTT assay. Format: cell-based. The settings on record: Cricetulus griseus.
The next data set has as its target Cytochrome P450 2E1 (Homo sapiens, UniProt P05181). Kind of data set: Inhibition of CYP2E1 in human liver microsomes assessed as chlorzoxazone 6-hydroxylation after 20 mins by LC-MS analysis. Format: ADME, Microsome.
In another data set the target is T1, Cytochrome P450 2B6 (Homo sapiens, UniProt P20813).
T1 sequence (P20813 whole entry): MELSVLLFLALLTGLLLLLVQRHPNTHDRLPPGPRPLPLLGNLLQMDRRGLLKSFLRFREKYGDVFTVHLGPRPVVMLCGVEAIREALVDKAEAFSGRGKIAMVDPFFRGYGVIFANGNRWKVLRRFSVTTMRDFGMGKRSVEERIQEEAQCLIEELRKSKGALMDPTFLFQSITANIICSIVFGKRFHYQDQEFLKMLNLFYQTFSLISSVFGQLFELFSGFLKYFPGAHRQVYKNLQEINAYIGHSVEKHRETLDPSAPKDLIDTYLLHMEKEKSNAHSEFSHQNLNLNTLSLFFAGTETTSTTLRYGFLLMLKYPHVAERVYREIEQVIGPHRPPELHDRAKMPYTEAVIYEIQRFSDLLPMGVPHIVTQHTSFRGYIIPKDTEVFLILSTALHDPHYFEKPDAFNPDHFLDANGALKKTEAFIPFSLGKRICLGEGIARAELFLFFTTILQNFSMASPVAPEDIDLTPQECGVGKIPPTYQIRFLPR
Briefly: Inhibition of CYP2B6 in human liver microsomes assessed as bupropion hydroxylation after 20 mins by LC-MS analysis. It counts as ADME, Microsome. On the technique in general: Microsomes from liver hold many membrane-bound enzymes, among them those of drug oxidation.

The target of the next data set is T2, Cytochrome P450 2A6 (Homo sapiens, UniProt P11509).
T2 sequence (P11509 whole entry): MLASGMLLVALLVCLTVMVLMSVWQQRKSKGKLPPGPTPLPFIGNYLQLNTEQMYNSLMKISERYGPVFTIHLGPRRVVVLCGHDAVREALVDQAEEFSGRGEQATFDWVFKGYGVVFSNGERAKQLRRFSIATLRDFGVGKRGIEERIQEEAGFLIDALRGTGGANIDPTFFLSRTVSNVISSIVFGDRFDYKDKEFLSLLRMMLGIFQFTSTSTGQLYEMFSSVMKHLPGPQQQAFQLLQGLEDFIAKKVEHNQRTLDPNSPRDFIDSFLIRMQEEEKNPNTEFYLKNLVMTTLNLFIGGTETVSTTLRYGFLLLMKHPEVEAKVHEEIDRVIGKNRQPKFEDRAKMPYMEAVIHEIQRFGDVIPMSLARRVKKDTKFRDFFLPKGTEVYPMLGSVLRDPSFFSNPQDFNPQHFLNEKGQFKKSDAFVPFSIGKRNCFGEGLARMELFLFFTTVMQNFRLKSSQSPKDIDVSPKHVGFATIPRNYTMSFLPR
Briefly: Inhibition of CYP2A6 in human liver microsomes assessed as coumarin 7-hydroxylation after 20 mins by LC-MS analysis. It counts as ADME, Microsome.

A further data set concerns the target Cytochrome P450 2D6 (Homo sapiens, UniProt P10635). Kind of data set: Inhibition of CYP2D6 in human liver microsomes assessed as bufuralol 1'-hydroxylation after 20 mins by LCMS analysis. It counts as ADME, Microsome.
For another data set, the target named is Cytochrome P450 2C9 (Homo sapiens, UniProt P11712). Kind of data set: Inhibition of CYP2C9 in human liver microsomes assessed as diclofenac 4'-hydroxylation after 20 mins by LCMS analysis. It counts as ADME, Microsome.
For another data set, the target named is T3, Cytochrome P450 2C8 (Homo sapiens, UniProt P10632).
T3 sequence (P10632 whole entry): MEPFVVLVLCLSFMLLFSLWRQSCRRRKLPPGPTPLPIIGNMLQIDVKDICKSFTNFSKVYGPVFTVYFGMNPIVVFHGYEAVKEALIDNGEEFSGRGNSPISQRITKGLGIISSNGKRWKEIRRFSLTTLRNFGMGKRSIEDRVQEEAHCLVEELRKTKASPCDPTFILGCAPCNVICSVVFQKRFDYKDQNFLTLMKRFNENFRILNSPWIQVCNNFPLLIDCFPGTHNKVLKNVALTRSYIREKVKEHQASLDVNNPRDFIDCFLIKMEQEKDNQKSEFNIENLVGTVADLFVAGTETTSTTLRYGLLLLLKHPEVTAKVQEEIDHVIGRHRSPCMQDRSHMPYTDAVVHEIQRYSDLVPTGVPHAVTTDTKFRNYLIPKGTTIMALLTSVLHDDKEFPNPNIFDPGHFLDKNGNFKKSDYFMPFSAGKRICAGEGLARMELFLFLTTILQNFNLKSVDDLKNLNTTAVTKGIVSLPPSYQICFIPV
Briefly: Inhibition of CYP2C8 in human liver microsomes assessed as paclitaxel 6alpha-hydroxylation after 20 mins by LC-MS analysis. It counts as ADME, Microsome.

The target of a further data set is T4, Cytochrome P450 1A2 (Homo sapiens, UniProt P05177).
T4 sequence (P05177 whole entry): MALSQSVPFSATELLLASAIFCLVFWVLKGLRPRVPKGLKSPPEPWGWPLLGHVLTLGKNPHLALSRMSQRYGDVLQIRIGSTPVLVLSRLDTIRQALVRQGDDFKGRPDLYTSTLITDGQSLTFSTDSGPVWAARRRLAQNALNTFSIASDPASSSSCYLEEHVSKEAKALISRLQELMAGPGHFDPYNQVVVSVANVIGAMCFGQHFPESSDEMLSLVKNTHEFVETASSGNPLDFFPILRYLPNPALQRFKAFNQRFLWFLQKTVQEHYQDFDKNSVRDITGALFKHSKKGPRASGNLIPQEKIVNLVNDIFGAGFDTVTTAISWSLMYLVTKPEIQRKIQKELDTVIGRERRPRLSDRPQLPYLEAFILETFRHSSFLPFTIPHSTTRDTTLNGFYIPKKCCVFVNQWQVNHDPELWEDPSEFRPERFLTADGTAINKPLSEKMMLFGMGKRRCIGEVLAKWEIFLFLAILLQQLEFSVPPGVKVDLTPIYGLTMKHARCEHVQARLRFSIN
Kind of data set: Inhibition of CYP1A2 in human liver microsomes assessed as phenacetin O-deethylation after 20 mins by LC-MS analysis. It counts as ADME, Microsome.

Data set [1] concerns Liver microsomes. Briefly: Drug metabolism in human liver microsomes assessed as formation of N-dealkylation product at 5 uM after 1 hr. Format: ADME, Microsome.
The test system of data set [2] is Liver microsomes. Briefly: Metabolic stability of the compound in rat liver microsomes at 1 uM after 40 mins. Format: ADME, Microsome.
A further data set relates to Hepatocyte. Briefly: Drug metabolism in human hepatocytes assessed as formation of N-dealkylation product at 5 uM after 1 hr. It counts as ADME, cell-based.
In data set [3] the test system is Liver microsomes. Briefly: Metabolic stability of the compound in human liver microsomes at 1 uM after 40 mins. It counts as ADME, Microsome.
Data set [4] relates to Plasmodium falciparum. Kind of data set: Antiplasmodial activity chloroquine-resistant Plasmodium falciparum W2 using YOYO-1 staining after 48 hrs by FACS analysis. The settings on record: W2, 48 h. Format: functional, organism-based. On the technique in general: A flow cytometer gives signals particle by particle.
The subject of data set [5] is Plasmodium falciparum. Kind of data set: Antiplasmodial activity chloroquine-resistant Plasmodium falciparum K1 infected in human A+ erythrocytes assessed as reduction of [3H]hypoxanthine incorporation after 24 hrs by scintillation counting. It counts as functional, organism-based.
For data set [6], the system named is Plasmodium falciparum. Kind of data set: Antiplasmodial activity chloroquine-sensitive Plasmodium falciparum 3D7 infected in human A+ erythrocytes assessed as reduction of [3H]hypoxanthine incorporation after 24 hrs by scintillation counting. Format: functional, organism-based.
Data set [7] in a line: physchem. The settings on record: phosphate buffered saline, pH 7.4.
The nature of data set [8]: physchem. The settings on record: 0.01 M HCl, pH 2.

Cytochrome P450 2D6, sequence (P10635 whole entry): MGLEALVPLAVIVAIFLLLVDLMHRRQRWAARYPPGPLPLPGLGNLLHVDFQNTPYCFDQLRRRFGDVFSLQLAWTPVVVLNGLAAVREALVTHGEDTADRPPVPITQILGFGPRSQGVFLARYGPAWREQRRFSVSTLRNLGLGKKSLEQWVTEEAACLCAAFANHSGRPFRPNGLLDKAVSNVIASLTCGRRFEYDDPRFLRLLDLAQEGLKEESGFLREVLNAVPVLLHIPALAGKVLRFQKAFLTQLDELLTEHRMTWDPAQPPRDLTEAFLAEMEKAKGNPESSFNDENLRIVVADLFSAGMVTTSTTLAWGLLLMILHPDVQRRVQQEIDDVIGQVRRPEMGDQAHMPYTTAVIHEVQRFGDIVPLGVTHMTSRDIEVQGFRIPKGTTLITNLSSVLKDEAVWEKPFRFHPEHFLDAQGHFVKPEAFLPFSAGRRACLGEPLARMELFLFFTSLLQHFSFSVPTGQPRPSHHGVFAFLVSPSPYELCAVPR
Cytochrome P450 2E1, sequence (P05181 whole entry): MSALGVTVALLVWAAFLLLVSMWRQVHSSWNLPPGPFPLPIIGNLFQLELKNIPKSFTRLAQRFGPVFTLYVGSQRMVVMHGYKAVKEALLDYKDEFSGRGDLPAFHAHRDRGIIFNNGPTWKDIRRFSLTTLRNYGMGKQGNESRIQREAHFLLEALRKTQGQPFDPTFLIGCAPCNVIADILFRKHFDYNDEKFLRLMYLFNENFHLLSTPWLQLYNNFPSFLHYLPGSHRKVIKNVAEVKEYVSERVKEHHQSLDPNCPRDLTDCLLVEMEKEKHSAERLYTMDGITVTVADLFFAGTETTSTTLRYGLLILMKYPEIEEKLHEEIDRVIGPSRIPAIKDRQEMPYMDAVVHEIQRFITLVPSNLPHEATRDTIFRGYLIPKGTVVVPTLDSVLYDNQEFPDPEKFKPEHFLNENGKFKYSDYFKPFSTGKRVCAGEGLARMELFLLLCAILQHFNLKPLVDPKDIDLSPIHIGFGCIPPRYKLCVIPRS
Cytochrome P450 2C9, sequence (P11712 whole entry): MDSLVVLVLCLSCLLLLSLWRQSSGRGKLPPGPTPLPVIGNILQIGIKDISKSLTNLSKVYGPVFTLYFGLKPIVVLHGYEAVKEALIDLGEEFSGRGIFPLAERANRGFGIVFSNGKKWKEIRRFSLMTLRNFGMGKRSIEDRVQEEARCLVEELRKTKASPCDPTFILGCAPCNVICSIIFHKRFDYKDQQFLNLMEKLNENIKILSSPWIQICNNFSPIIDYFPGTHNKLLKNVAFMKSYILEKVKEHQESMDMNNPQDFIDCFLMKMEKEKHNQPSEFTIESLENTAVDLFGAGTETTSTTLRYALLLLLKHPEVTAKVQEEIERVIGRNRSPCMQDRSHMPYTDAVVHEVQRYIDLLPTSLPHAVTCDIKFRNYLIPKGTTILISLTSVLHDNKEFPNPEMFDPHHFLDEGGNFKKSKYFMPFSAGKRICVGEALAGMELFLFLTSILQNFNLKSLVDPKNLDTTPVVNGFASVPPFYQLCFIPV

Consider `CCN(CC)C(c1cccc(Nc2ccnc3cc(Cl)ccc23)c1)c1nnnn1C(C)(C)C` (configuration not stated), for which the IC50 in the data set with CHO was 111000 nM; at Cytochrome P450 2E1 it was greater than 20000 nM; at Cytochrome P450 2B6, greater than 20000 nM; on Cytochrome P450 2A6 it was greater than 20000 nM; on Cytochrome P450 2D6, 2310 nM; at Cytochrome P450 2C9 it was 2430 nM. Also, the IC50 on Cytochrome P450 2C8 was determined as 220 nM; on Cytochrome P450 1A2, 4330 nM; with Plasmodium falciparum [4], 66 nM; in the data set on Plasmodium falciparum [5], 6 nM; in the data set with Plasmodium falciparum [6] it was 100 nM. In addition, the Drug metabolism result in the data set on Liver microsomes [1] and in the data set with Hepatocyte was “Active” each time. Also, the Stability entry in the data set with Liver microsomes [2] and with Liver microsomes [3] was “Unstable” each time. Also, the solubility (kinetic) at 2 h was less than 5 µM in the data set “physchem [7]” and greater than 200 µM in “physchem [8]”.

The IC50 is the concentration at which inhibition is half-maximal. As usually defined, the kinetic solubility is the concentration staying in solution when a stock, usually in DMSO, is diluted into the medium.
